# Experimental data from PMC6658616, “Novel Peptide Conjugates of Modified Oligonucleotides for Inhibition of Bacterial RNase P” (Frontiers in Pharmacology, 2019).
# System: E. coli RNase P (M1 RNA + C5 protein)
# Test: Inhibition of RNase P hydrolysis of fluorescent RNA target by inhibiting oligonucleotides
# Type: biochemical, Escherichia coli
# Details: 5 nM M1 RNA, 50 nM C5 protein, 100 nM fluorescent RNA target, 0-125 nM inhibiting oligonucleotide, 10 mM Tris-HCl pH 7.5, 10 mM MgCl2, 100 mM NH4Cl, 37°C; fluorescence read-out; mean ± SD from two independent experiments
row,Substance,IC50
1,"d-inh: oligodeoxyribonucleotide 5’-d(CAAGCAGCCTACCC) (DNA, backbone not given here)",270 ± 90 nM
2,"r-inh: native oligoribonucleotide 5’-r(CAAGCAGCCUACCC), complementary to nucleotides 291–304 in the P15-loop of E. coli M1 RNA (RNA, backbone not given here)",12 ± 4 nM
